Reference: patent US8575217B2, “Anti-inflammatory and antioxidant conjugates useful for treating metabolic disorders” (Genmedica Therapeutics SL, priority 2009, dated 2013)

Assays:
db/db mice [1] = assay: Intraperitoneal glucose tolerance test in db/db mice; assay type: in vivo; conditions: salicylate-NAC 1.5, diflunisal-NAC 0.5 mmol/kg/day as lysine salt; glucose 0.5 g/kg ip, 120 minute timecourse
Protocol: At the fourth week of treatment, a Glucose Tolerance Test was done to the mice after an overnight fasting. The animals received an ip injection of Glucose 0.5 g/kg (Glucosmon 50®). The glycemia levels were determined in blood at the indicated time from the Tail Vein after the Glucose injection using a rapid glucose analyzer.

[2] = system: alloxan-treated cd-1 mice; assay: In vivo beta cell protection model (alloxan); conditions: for plasma insulin levels: lysine salt, alloxan-treated (FIG. 6)
Protocol: Beta-cell destruction was induced in cd-1 mice after 3 hours of fasting by a single intraperitoneal injection of a freshly prepared solution of alloxan 200 mg/kg (Sigma-Aldrich, San Luis, Mo.) that was dissolved in NaCl 0.9%. Single intraperitoneal drug administration was 1 hour before the alloxan administration. Animals received the different drugs dissolved in PBS pH 7.4, and the animals that not received any drug were injected with the vehicle, in this case PBS pH 7.4. At the end of the treatment, at day 4, animals were killed and the plasma collected and kept at −20° C. until used.
(§1) The circulating glucose concentration was determined by a rapid glucose analyzer (Accu-Chek Aviva; Roche). Plasma triglycerides and non esterified fatty acids were determined with standard colorimetric methods (Biosystems, Barcelona, Spain, and Wako Chemicals, Neuss, Germany, respectively). Plasma insulin concentration was determined by enzyme-linked immunosorbent assay method (CrystalChem, Downers Grove, Ill.). Total pancreas insulin content has been determined after extraction of insulin with a mixture Ethanol (70%)/HCl (0.15 N) from pancreas homogenates.

[3] = Chemical stability of conjugates in neutral, acidic and basic solutions; assay type: physicochemical
Protocol: Exemplary expérimental results showing the efficacy of certain embodiments of the combinations of the invention are set forth in the drawings. Stability studies were performed on thioester conjugates of N-acetylcysteine and salicylate, diflunisal or dexibuprofen, at neutral (pH 7), acidic, or basic (9) pH in phosphate-buffered saline (PBS). […] Diflunisal-NAC conjugates were tested for 3 or 24 hours under the same neutral, acidic and basic conditions, at room température or 4° C., and in PBS or mixture of water and méthanol.

db/db mice [4] = assay: Chronic treatment in db/db mice; assay type: in vivo
[5] = Cleavage by rat liver microsomes; assay type: in vitro ADME; conditions: 1 hour incubation; for cleavage of conjugate, rat versus human microsomes: free salicylate or diflunisal assayed
Protocol: (§2) In vitro cleavage experiments were performed substantiallas described in Singh et al., 1996, In vitro metabolism of a potent HIV-protease inhibitor (141W94) using rat, monkey and human liver S9, Rapid Commun. Mass Spectrom. 10: 1019-1026. Briefly, conjugate compounds of the invention were incubated at a final concentration of 1 microM for 1 hour in the presence of human or rat liver microsome S9 (obtained from Xenotech). At the end of incubation at each of the time points reported, an equal volume of an organic mixture (acetonitrile/methanol, 50/50, v/v) was added to the incubation mixture followed by centrifugation. At this time blank microsomal extract was spiked with metabolites to create calibration standards for each metabolite at the following concentrations: 0 (blank), 0.05, 0.1, 0.5 and 1 microM. All samples were analyzed by HPLC-MS/MS and the peak areas corresponding to the expected metabolites (generally, antioxidant and anti-inflammatory cleaysasge products) were determined by HPLC-MS/MS. The amount of each metabolite present in the 60 minute incubation samples was determined from the corresponding calibration curve.
The capacity for conjugates of the invention to be cleaved was tested in vitro using rat or human liver microsomes. […] Similar experiments were performed in plasma from rat or human for salicylate-NAC or diflunisal-NAC conjugates; thèse results are shown in FIGS. 3 and 4, respectively.

human diabetic patients = conditions: 4.5 g/day; cited from earlier work
db/db mice [6] = assay: Pancreas insulin content and immunohistochemical analysis of pancreas sections in db/db mice; assay type: in vivo; conditions: chronic oral, four weeks, 0.5 mmol/kg/day (FIG. 24)
Protocol: as §1
The pancreas was removed from each mouse and fixed overnight in a solution of 4% formalin. Fixed tissues were processed routinely for paraffin embedding, and 6-μm sections were prepared and mounted on slides treated with xilane. For detection of insulin, the avidin-biotin complex (ABC) method was performed using Vectastain ABC Kit (Vector Laboratories). Deparaffinized and […] sections were microwaved in citrate buffer (pH 6.0) for antigen retrieval, then were incubated in Tris 100 mM pH 7.4 containing 3% BSA, and 0.01% Triton, to permeabilize and block nonspecific staining, for 30 min, and after that, were incubated with the guinea pig polyclonal anti-insulin antibody (Dako), diluted 1/500 in blocking solution for 2 hours. Negative controls were incubated with blocking solution without the primary antibody. […]

[7] = Cleavage by human liver microsomes; assay type: in vitro ADME; conditions: 1 hour incubation; diflunisal-NAC compared with salicylate-NAC
Protocol: as §2
The capacity for conjugates of the invention to be cleaved was tested in vitro using rat or human liver microsomes. […]

control animals = assay: Preliminary experiment with control animals (oral diflunisal-NAC); assay type: in vivo; conditions: oral 0.5 mmol/kg
[8] = Diflunisal and NAC blood levels after oral administration of conjugate versus separate components; assay type: in vivo, rats; conditions: 7-hour timecourse (FIG. 16)
Protocol: A comparison of diflunisal and NAC levels in blood after oral administration was performed in rats by administration of the diflunisal-NAC conjugate (GMC-252) or the individual components separately (i.e., not chemically conjugated). Conjugate (20 mg/kg) or the equivalent amount of difliunisal and NAC were administered and blood assayed over a 7-hour timecourse.

[9] = 0.75 mmol/kg/day as lysine salt, ip, compared with separate administration of salicylate or NAC (FIG. 7)

For `CC(=O)N[C@@H](CSC(=O)c1ccccc1O)C(=O)O` [Example 1, (R)-2-acetamido-3-(2-hydroxybenzoylthio)propanoic acid], the “plasma glucose in glucose tolerance test” value (db/db mice [1]) was “reductions in plasma glucose”, the glycemia ([2]; 0.38 mmol/kg or equivalent amount of combination, 4-day timecourse, male cd-1 mice (FIG. 17)) was “statistically-significant reduction” and the “pancreatic beta-cell function (as assessed by plasma insulin levels)” value ([2]; alloxan-treated mice (FIG. 17)) was “statistically-significant potection of pancreatic beta-cell function”. For the same compound, the plasma insulin levels ([2]; i.p., listed as GMC-3a) was “preservation of insulin levels”, the plasma insulin levels ([2]; i.p., listed as salicylate-NAC) was “an increase in plasma insulin levels” and the “effect of alloxan on β-cells” value ([2]; lysine salts (FIG. 6)) was “reduce the effect of alloxan on β-cells”. The glycemia ([2]; lysine salts, i.p., 4-day timecourse (FIG. 6)) was “statistically-significant reductions in glycemia”, the “stability under acidic conditions, lysine salt” value ([3]; 3 h) was “stable after 3 hours” and the “stability, free acid in the absence of lysine” value ([3]; 3 days) was “lost stability during a 3-day timecourse”. For the same compound, the “detectable conjugate under basic conditions” value ([3]; basic pH (9), PBS, room temperature, 3 hour incubation, free acid and lysine salt tested) was “only the lysine salt showed any (sparing) détectable conjugate”, the “free fatty acid levels” value (db/db mice [4]; 0.38 mmol/kg/day or equivalent amount of combination (FIG. 18)) was “lowered significantly only by the conjugate” and the “free fatty acid levels” value (db/db mice [4]; [9]) was “significantly improved”. The plasma triglyceride levels (db/db mice [4]; [9]) was “significantly improved”, the “free fatty acid levels” value (db/db mice [4]; 0.75 mmol/kg/day or equivalent amount of combination (FIG. 18)) was “statistically-significant reductions” and the triglycerides (db/db mice [4]; chronic oral, diflunisal-NAC 0.5, salicylate-NAC 1.5 mmol/kg/day as lysine salt (FIG. 11)) was “significant réductions in triglycerides”. For the same compound, the “cleavage of conjugate, rat versus human microsomes” value [5] was “Rat microsomes were found to be more potent in cleaving”.

In the case of `CC(=O)NC(CSC(=O)C(C)c1ccc(CC(C)C)cc1)C(=O)O` (stereo not drawn) [Dexibuprofen-NAC], the “stability of free acid in water/methanol mixture” value ([3]; free acid, water/methanol, 3 and 24 hours (diflunisal-NAC: neutral pH, room temperature)) is reported as “stable for 3- and 24-hour incubation” and the “stability of lysine salt at neutral pH” value ([3]; lysine salt, neutral pH, room temperature or 4° C.) is reported as “stable as lysine salts”.

In the case of `O=C(Oc1ccccc1C(=O)O)c1ccccc1O` [salsalate], the “enhancement of side effects such as tinnitus” value (human diabetic patients) is listed as 66%.

For `CC(=O)N[C@@H](CSC(=O)c1cc(-c2ccc(F)cc2F)ccc1O)C(=O)O` [Example 13], the pancreatic weight (db/db mice [6]) was “without affecting pancreatic weight”, the “stability of lysine salt in PBS, 3 hours” value [3] was “stable” and the “stability of lysine salt in water/methanol mixture” value [3] was “did not show comparable stability”. For the same compound, the “stability of lysine salt in PBS, 24 hours” value ([3]; 24 h, pH 7) was “not after 24 hours”, the “stability of free acid in water/methanol mixture” value ([3]; pH 7) was “stable over 3 and 24 hours” and the “percentage of anti-inflammatory component released by human liver microsomes” value [7] was “a higher percentage of diflunisal that salicyalte was released”. For the same compound, the “body weight and epididimal adipose tissue weight” value (control animals) was “did not affect these two parameters”, the “body weight of treated db/db mice” value (db/db mice [4]; oral 0.5 mmol/kg (FIG. 20)) was “did not affect the weight” and the “epididimal adipose tissue weight” value (db/db mice [4]; oral 0.5 mmol/kg, treated group (vehicle 1.7±0.09)) was 1.8 ± 0.07 g. For the same compound, the “macroscopic lesions of the gastro intestinal system” value (db/db mice [4]; oral treatment of db/db mice) was “did not induce any macroscopic lesions”, the “plasma concentration profile of diflunisal and NAC” value ([8]; oral 20 mg/kg conjugate versus equivalent diflunisal and NAC given separately) was “a more gradual increase in plasma concentrations” and the “final plasma concentrations of diflunisal and NAC” value ([8]; oral 20 mg/kg conjugate versus separate components) was “the final concentrations were the same”. For the same compound, the “cleavage of conjugate, rat versus human microsomes” value [5] was “Rat microsomes were found to be more potent in cleaving” and the “percentage of anti-inflammatory component released by rat liver microsomes” value ([5]; diflunisal-NAC compared with salicylate-NAC) was “a higher percentage of diflunisal that salicyalte was released”.
